Patent US8802103B2, “Compositions and methods for diagnosing and treating cancer” (OncoMed Pharmaceuticals, Inc., priority 2007, dated 2014)

System: UM-C17 colon tumor cells
Assay: UM-C17 colon tumor xenograft growth
Format: in vivo, NOD/SCID mice
Details: 10 mg/kg i.p. two times per week from day 19, tumors approximately 100 mm^3
Experimental: In certain embodiments, anti-Jagged 1 antibodies were analyzed for their ability to reduce the growth of UM-C17 colon tumor cells. Dissociated UM-C17 cells (10,000 per animal) were injected subcutaneously into the right flank region of 6-8 week old NOD/SCID mice. Day 19 after tumor cell injection, when tumors were approximately 100 mm^3, animals were injected intraperitoneal (i.p.) with either 10 mg/kg 64M14 anti-Jagged 1 antibodies, 10 mg/kg 64M14 anti-Jagged 1 antibody and 10 mg/kg Avastin (anti-VEGF), Avastin alone, or control antibody anti-DNP (dinitrophenol or anti-hapten) (n=10 per group) two times per week for the duration of the experiment. Both treatment with 64M14 antibodies and Avastin reduced tumor growth by close to 50% compared to controls (FIG. 4).

## Avastin: anti-VEGF antibody
  reduction of tumor growth compared to control antibodies: ~50%
